Results taken from patent EP0618203A1, “3-O-acylated catechins and method of producing same” (MITSUI NORIN CO., LTD., priority 1993, dated 1994).

Tests used:
[1] = Solubility in fats and oils (turbidity of salad oil, absorbance at 660nm); type: physicochemical; details: sample added to salad oil (Honen Corporation) at 100ppm; turbidity as absorbance at 660nm; Control 0.057; lower = better dissolved
Experimental: Each sample was added to salad oil (Honen Corporation) in a concentration of 100ppm, and turbidity was determined by measuring absorbance at 660nm.

[2] = Antioxidative activity in salad oil, Rancimat method (induction time); details: 100ppm in salad oil, 120°C, Control 3.40
Experimental: We investigated the antioxidative activity of the acylated derivatives of (-)-epigallocatechin, one of the most powerful antioxidants in tea. […] (The reaction was conducted at a temperature of 120°C).

SMILES	OD 660 [1]	Induction Time [2] [h]
Oc1cc(O)c2c(c1)O[C@H](c1cc(O)c(O)c(O)c1)[C@H](O)C2 [(-)-Epigallocatechin, (-)-epigallocatechin]	0.277	6.03
CCC(=O)O[C@@H]1Cc2c(O)cc(O)cc2O[C@@H]1c1cc(O)c(O)c(O)c1 [(-)-3-0-Propionyl epigallocatechin, (-)-3-0-propionyl epigallocatechin]	–	6.02
CCCC(=O)O[C@@H]1Cc2c(O)cc(O)cc2O[C@@H]1c1cc(O)c(O)c(O)c1 [(-)-3-0-Butyryl epigallocatechin, (-)-3-0-butyryl-epigallocatechin]	–	6.07
